Results published in patent US20080221013A1, “Neurobiological compositions” (priority 2006, published 2008).
Read-outs that look alike come from different tables or passages of the source.

Assays:
striatum = details: drinking water from 8 months of age for 10 months
nAChRs = experiment: whole-cell patch clamp recordings of nicotine-induced currents in medial habenula neurons in brain slices; type: cell-based, mouse; details: for EC50: 250 ms nicotine pulse, 0.1 μM to 300 μM, read-out: EC50 of nicotine-induced current
[1] = test system: primary cortical cultures
[2] = test system: primary cortical cultures; remark: listed apart in the source
Method: Cultured cells were then loaded with the Ca^2+ sensitive indicator fluo-3 and fluorescence measurements were obtained (FIG. 5A). […] Acute responses to nicotine were measured using fluorescence levels in real time.

pain sensitivity = details: lynx1 null mutant mice vs wild-type
seizure activity = details: lynx1 null mutant mice vs wt; single injection of nicotine
motor learning = details: 200 μg/ml nicotine in 2% saccharin
alpha4beta2 nAChRs = target: T1, alpha4beta2 nAChRs (Homo sapiens, UniProt P17787+P43681); experiment: co-immunoprecipitation in transiently transfected HEK293 cells; type: binding; details: IP with nAChR antibodies, Western blot
T1 construct: expressed in transfected cells; host or cells: HEK293

alph4beta2 nAChRs = target: T2, alph4beta2 nAChRs (Homo sapiens, UniProt P17787+P43681); experiment: voltage-clamp recordings of xenopus oocytes heterologously expressing nAChR and lynx cRNA; type: cell-based; details: coexpressed with a4b2 nAChRs in oocytes, 1 mM ACh; for desensitization of ACh-evoked currents during agonist application: 20 sec; for fast time constant of desensitization / slow time constant of desensitization (plateau phase): two-exponential fit
T2 construct: expressed in transfected cells; host or cells: Xenopus oocytes injected with cRNA
Method: The inward currents were evoked by 20 sec periods of superfusion (horizontal calibration bar) with external saline containing 1 mM ACh. […] B and C. The differences in desensitization are shown with bar graphs. As described in (2), two exponentials equations were fitted to the desensitization currents during ACh application. Using these equations, fast (B) and slow (C) time constants were calculated and the average values of these constants for ACh responses are shown in B and C.
The inward currents were evoked by 20 sec periods of superfusion (horizontal calibration bar) with external saline containing 1 mM ACh. […] B and C). The differences in desensitization are shown with bar graphs. As described in (2), two exponentials equations were fitted to the desensitization currents during ACh application. Using these equations, fast (B) and slow (C) time constants were calculated and the average values of these constants for ACh responses shown.

T1 sequence (P43681 29-627 limits assumed): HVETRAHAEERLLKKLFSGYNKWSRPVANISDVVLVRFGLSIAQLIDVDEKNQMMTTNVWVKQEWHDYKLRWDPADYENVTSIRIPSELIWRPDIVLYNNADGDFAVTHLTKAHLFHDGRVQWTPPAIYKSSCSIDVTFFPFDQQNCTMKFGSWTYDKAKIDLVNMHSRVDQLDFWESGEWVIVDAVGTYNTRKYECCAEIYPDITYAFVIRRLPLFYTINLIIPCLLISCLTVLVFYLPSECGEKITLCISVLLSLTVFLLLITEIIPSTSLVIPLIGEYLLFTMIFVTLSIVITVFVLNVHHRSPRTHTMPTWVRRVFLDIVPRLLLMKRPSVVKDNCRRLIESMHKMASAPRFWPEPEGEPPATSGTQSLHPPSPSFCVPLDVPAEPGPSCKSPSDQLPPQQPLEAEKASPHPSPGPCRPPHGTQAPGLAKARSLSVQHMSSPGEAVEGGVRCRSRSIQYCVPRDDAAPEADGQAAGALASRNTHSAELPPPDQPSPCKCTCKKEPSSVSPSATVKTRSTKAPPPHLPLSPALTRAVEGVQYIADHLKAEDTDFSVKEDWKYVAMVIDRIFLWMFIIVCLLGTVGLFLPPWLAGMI
T1 sequence (P17787 26-502): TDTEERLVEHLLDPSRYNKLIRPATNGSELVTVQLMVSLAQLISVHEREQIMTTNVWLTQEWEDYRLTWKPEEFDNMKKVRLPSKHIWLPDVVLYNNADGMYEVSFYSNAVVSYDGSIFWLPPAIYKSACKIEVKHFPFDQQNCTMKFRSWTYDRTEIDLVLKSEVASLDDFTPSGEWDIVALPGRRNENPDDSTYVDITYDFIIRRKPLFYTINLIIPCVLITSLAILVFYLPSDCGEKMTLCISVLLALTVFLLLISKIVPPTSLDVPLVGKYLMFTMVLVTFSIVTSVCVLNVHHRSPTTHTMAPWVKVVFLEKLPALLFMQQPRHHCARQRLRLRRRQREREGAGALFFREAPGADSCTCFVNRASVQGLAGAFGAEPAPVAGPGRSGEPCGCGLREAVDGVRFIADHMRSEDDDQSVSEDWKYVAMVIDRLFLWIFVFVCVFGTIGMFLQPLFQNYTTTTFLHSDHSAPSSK
T2 sequence (P43681 29-627 limits assumed): as the sequence (P43681 29-627 limits assumed) above
T2 sequence (P17787 26-502): as the sequence (P17787 26-502) above

CN1CCCC1c1cccnc1 (centres unmarked) [nicotine]
vacuolation in the striatum, nicotine solution vs saccharin (striatum; lynx1−/− mice): significant increase in vacuolation | vacuolation in the striatum, nicotine/saccharin vs saccharin (striatum; wild-type mice): no significant differences in vacuolation | decrease of EC50 for nicotine on loss of lynx1 (nAChRs; lynx1 null mutant vs wild-type): […] | EC50 (nAChRs; lynx1−/− mice): […] | half-maximal response time (decay of nicotine response) (nAChRs; neurons from lynx1−/− mice): […] | EC50 (nAChRs; wild-type mice): […] | half-maximal response time (decay of nicotine response) (nAChRs; wild-type neurons): […] | neuroprotection against glutamate-mediated cell death ([1]; lynx1−/− neurons, nicotine pretreatment, glutamate): completely abolished | neuroprotection against glutamate-mediated cell death ([1]; wild-type neurons, 1 hour pretreatment of nicotine, 100 μM glutamate): protects wild-type neurons from cell death | acute Ca2+ response, fluorescence in real time ([2]; lynx1−/− cultures): significant increase | increase in fluorescence (steady state Ca2+ levels) ([2]; lynx1−/− cultures, 10 μm nicotine): 2 fold | nicotine concentration sufficient for activation of nAChRs and elevation of Ca2+ levels ([2]; lynx1−/− cultures, dose-response): […] | acute Ca2+ response, fluorescence in real time ([2]; wild-type cultures): not | change in steady state Ca2+ levels (fluorescence) ([2]; wild-type cultures, 10 μm nicotine): did not result in a significant change | change in fluorescence in dose-response measurements ([2]; wild-type cultures, any of the concentrations tested): no change in fluorescence | antinociceptive effect of nicotine, time on a hot-plate (pain sensitivity): enhanced sensitivity | nicotine induced seizures, seizure index (scale of 1-8) (seizure activity): […] | rotarod performance relative to similarly treated wild-type mice (motor learning; lynx1−/− mice, 2nd day of training): significant improvement in rotarod performance | rotarod performance vs saccharin-treated mice (motor learning; wild-type mice, at least 6 weeks): this difference was not significant

CNC1(C)C2CCC(C2)C1(C)C (centres unmarked) [mecamylamine]
effect on nicotine-induced currents (nAChRs; nAChR antagonist, recovered during wash out): blocked

lynx3: lynx family polypeptide with modulatory capacity on nAChRs; mouse lynx3 (SEQ ID NO:7)
association with nAChRs in co-immunoprecipitation (alpha4beta2 nAChRs): stable associations | desensitization of ACh-evoked currents during agonist application (alph4beta2 nAChRs): significantly faster desensitization | fast time constant of desensitization (alph4beta2 nAChRs): significantly faster | slow time constant of desensitization (plateau phase) (alph4beta2 nAChRs): remained the same

B1: lynx2: lynx family polypeptide related to lynx1; mouse lynx2 (SEQ ID NO:5) (protein, listed as Mus musculus)
chain: MWVLGIAATFCGLFWLPGLALQIQCYQCEEFQLNNDCSSPEFIVNCTVNVQDMCQKEVMEQSAGIMYRKSCASSAACLIASAGYQSFCSPGKLNSVCISCCNTPLCNGPRPKKRGSSASAIRPGLLTTLLFFHLALCLAHC
association with nAChRs in co-immunoprecipitation (alpha4beta2 nAChRs): stable associations | desensitization of ACh-evoked currents during agonist application (alph4beta2 nAChRs): significantly faster desensitization | fast time constant of desensitization (alph4beta2 nAChRs): significantly faster | slow time constant of desensitization (plateau phase) (alph4beta2 nAChRs): remained the same

B2: ly6H: a lynx-related gene, a related family member, used as comparator (protein)
chain: LWCQDCTLANSSHCAPKQCQPTDTVCASVRITDPSSSRKDHSVNKMCASSCDFVKRHFFSDYLMGFINSGILKVDVDCCEKDLCN
association with nAChRs in co-immunoprecipitation (alpha4beta2 nAChRs): not | desensitization of ACh-evoked currents during agonist application (alph4beta2 nAChRs): no effect on desensitization | fast time constant of desensitization (alph4beta2 nAChRs): unaffected | slow time constant of desensitization (plateau phase) (alph4beta2 nAChRs): unaffected
